Data from patent publication US20160278348A1, “METHOD FOR CONTROLLING WATER MOLDS IN AQUACULTURE WATER” (SUKEGAWA CHEMICALS CO., LTD., priority 2014, published 2016).

Assays:
[1] = test system: water molds (genus Saprolegnia); assay: Experiment 2: water mold culture on hempseed cotyledons, sensitized time 60 min; assay type: cell-based
[2] = test system: water molds (genus Saprolegnia); assay: Experiment 1: water mold culture on hempseed cotyledons, sensitized time 30 min; assay type: cell-based; conditions: 100 ppm; sensitized 30 min
Description: Based on “Testing Methods for City Water (2001 edition) by Japan Water Works Association, VIII Microbial Tests, 4.4.2.2 Water Mold Culture Method”, one hempseed cotyledon with water molds and 300 mL of sterilized tap water were placed in a sterilized 500-mL conical flask, and then 5 sterilized hempseed cotyledons were placed in the conical flask and cultured at ordinary temperature. The water molds (genus Saprolegnia) were collected from a hatchery in a fish farm for salmons and trout. […] The water in fee conical flask was diluted with sterilized tap water to prepare a zoospore suspension containing 10 to 12 zoospores of the water molds per 100 μL. It is to be noted that the tap water used was city water (pH 6.0) in Kobe.
The zoospore suspension was added to a sterilized tube (5 mL capacity) containing 3 hempseed cotyledons and stirred, and was then allowed to stand at room temperature for 3 days. After 3 days, 900 μL of a chemical solution was added to the sterilized tube, and the resulting mixture was stirred and then allowed to stand for 30 minutes for sensitization. […]
Based on the results of the observation, the minimum killing concentration of an active ingredient contained in the chemical solution was determined. […]

Row | Compound | Haze ([1]; 100 ppm, sensitized 60 min) | Zoospores ([1]; 100 ppm, sensitized 60 min) | Haze ([1]; 1200 ppm, sensitized 60 min) | Haze [2] | Zoospores [2] | minimum killing concentration ([1]; sensitized time 60 minutes, as chlorine dioxide) [ppm]
1 | O=[N+]([O-])C(Br)(CO)CO [bronopol] | no effect | effective | could not be prevented | no effect | effective | 
2 | sodium chlorite |  |  |  |  |  | 2.5
